Values of other authors, collected in US5637619A, “Antitumor 2-aminocarbonyl-1, 2-bis(methylsulfonyl)-1-(substituted)hydrazines” (Yale University, priority 1995, dated 1997).

Tested on: NADPH:cytochrome P450 reductase
Conditions: cited from earlier work

Structure (SMILES): O=NN(CCCl)C(=O)NC1CCCCC1 [CCNU, 1-(2-chloroethyl)-3-cyclohexyl-1-nitrosourea]
- denitrosation (in words): catalyzed by NADPH:cytochrome P450 reductase
